Data on 8 molecules can be found in ChEMBL document CHEMBL1201862, “PubChem BioAssay data set” (2004).

For orientation: GI50 means the concentration that inhibits growth by half.

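Test compounds were applied to cells in 96-well plates for 48 hours at 5 doses. GI50 marks 50% less growth.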 The source made the active and inactive calls. Cut-off read from the data, not from the text of the source: active = GI50 up to about 1.1 µM and inactive = higher.

Test systems include SF-539; MOLT-4; SK-MEL-5; SK-MEL-2; HL-60; HOP-62; HOP-92; PC-3; CCRF-CEM; HCT-116; SN12C; SR; ACHN; HCC 2998; SW-620; CAKI-1; K562; LOX IMVI; SK-OV-3; EKVX.
Holding throughout (experiment): DTP human tumour cell line panel, 48 h

As to `COc1cccc(-c2cc(O)c3cccnc3n2)c1`, the 50% growth inhibitory concentration (GI50) is 0.102 µM (active) with SF-539; 0.221 µM (active) with MOLT-4; 0.0546 µM (active) in the assay on SK-MEL-5; > 100 µM (inactive) with SK-MEL-2; 0.0261 µM (active) in the assay with HL-60; 0.104 µM (active) in the assay with HOP-62. Also, the GI50 is 0.0776 µM (active) with HOP-92; 0.158 µM (active) with PC-3; 0.0603 µM (active) in the assay on CCRF-CEM; 0.0546 µM (active) in the assay on HCT-116; 0.406 µM (active) with SN12C; 0.0614 µM (active) in the assay on SR. Besides, the GI50 in the assay on ACHN is 0.179 µM (active); in the assay with HCC 2998, 0.251 µM (active); in the assay with SW-620, 0.0809 µM (active); with CAKI-1, 0.0984 µM (active); in the assay on K562, 0.0339 µM (active); in the assay on LOX IMVI it was 0.0867 µM (active).

`COc1cc2c(cc1OC)CC1c3cc(OC)c(OC)cc3CCN1CC2` (stereo not given): the GI50 with SF-539 is 58.7 µM (inactive); with MOLT-4, > 100 µM (inactive); in the assay on SK-OV-3, > 100 µM (inactive); in the assay with SK-MEL-5 it was 30.8 µM (inactive); in the assay on SK-MEL-2, > 100 µM (inactive); in the assay on HL-60 it was 10.6 µM (inactive). Also, the GI50 with HOP-62 is > 100 µM (inactive); in the assay with EKVX it was > 100 µM (inactive); in the assay with HOP-92 it was 69.3 µM (inactive); with PC-3, > 100 µM (inactive); in the assay with CCRF-CEM, > 100 µM (inactive); in the assay with HCT-116, 26.3 µM (inactive). Moreover, the GI50 with SN12C was > 100 µM (inactive); in the assay with SR, > 100 µM (inactive); with ACHN, 1.64 µM (inactive); in the assay on HCC 2998 it was > 100 µM (inactive); in the assay on SW-620, 84.1 µM (inactive); with CAKI-1, > 100 µM (inactive). For the same molecule, in the assay with K562, the GI50 was 89.7 µM (inactive).

Regarding `COP(=O)(O)C(N)Cc1c[nH]c2ccccc12` (stereo not given), the GI50 with MOLT-4 was > 100 µM (inactive); in the assay on SK-OV-3 it was > 100 µM (inactive); in the assay with SK-MEL-5, > 100 µM (inactive); with SK-MEL-2 it was > 100 µM (inactive); in the assay on HL-60 it was > 10 µM (inactive); in the assay on HOP-62 it was > 100 µM (inactive). Also, the GI50 in the assay with HOP-92, with PC-3, in the assay on CCRF-CEM, in the assay with HCT-116, in the assay on SN12C and in the assay on SR was > 100 µM (inactive) each time. Moreover, the GI50 in the assay on ACHN, with HCC 2998, in the assay with SW-620, in the assay on CAKI-1, with K562 and in the assay with LOX IMVI was > 100 µM (inactive) each time.

For `COC(=O)CCc1cc(OC)c(O)c(C(Cc2ccc(OC)c(OC)c2)C(=O)OC)c1` (stereo not given), the GI50 in the assay with SF-539, in the assay on MOLT-4, in the assay on SK-OV-3, with SK-MEL-5, in the assay on SK-MEL-2 and in the assay with HL-60 was > 100 µM (inactive) throughout. Also, the GI50 in the assay with HOP-62, in the assay with EKVX, with HOP-92, with PC-3, in the assay with CCRF-CEM and in the assay on HCT-116 was > 100 µM (inactive) in each case. The GI50 in the assay on SN12C, with SR, in the assay on ACHN, in the assay on HCC 2998, in the assay on SW-620 and in the assay with K562 was > 100 µM (inactive) each time. In addition, the GI50 with LOX IMVI was > 100 µM (inactive).

Take `OC1CN2CCS[C@H]2C(O)C1O` (stereo not given in full): the GI50 with MOLT-4, in the assay on SK-OV-3, in the assay on SK-MEL-5, in the assay on SK-MEL-2, with HL-60 and in the assay on HOP-62 was > 100 µM (inactive) in each case. The GI50 in the assay with EKVX, in the assay on HOP-92, in the assay with PC-3, with CCRF-CEM, in the assay on HCT-116 and in the assay on SR was > 100 µM (inactive) throughout. The GI50 with ACHN, in the assay on HCC 2998, in the assay on SW-620, in the assay with CAKI-1, with K562 and in the assay with LOX IMVI was > 100 µM (inactive) in each case.

Turning to `CO/C=C(/C(=O)OC)c1ccccc1[C@H]1C[C@@H]1c1ccc(OC)cc1`, the GI50 with SF-539 was 17 µM (inactive); with MOLT-4, 17.1 µM (inactive); with SK-OV-3, 17.8 µM (inactive); in the assay with SK-MEL-5, 12.4 µM (inactive); in the assay on SK-MEL-2, 13.2 µM (inactive); with HL-60 it was 25.2 µM (inactive). Besides, the GI50 in the assay on HOP-62 was 33.9 µM (inactive); in the assay on EKVX it was 14.3 µM (inactive); in the assay on HOP-92, 9.33 µM (inactive); with PC-3 it was 22.1 µM (inactive); in the assay with CCRF-CEM, 25.4 µM (inactive); in the assay with HCT-116, 16.3 µM (inactive). Moreover, the GI50 in the assay on SN12C is 32.1 µM (inactive); with SR it was 8.73 µM (inactive); in the assay on ACHN it was 22 µM (inactive); in the assay on HCC 2998, 17.2 µM (inactive); with CAKI-1 it was 17.9 µM (inactive); in the assay on K562, 15.8 µM (inactive).

For the molecule `N#Cc1c(N)nc(Sc2ccccc2N)c(C#N)c1-c1ccccc1`, the GI50 was 26.9 µM (inactive) with SF-539; 11.6 µM (inactive) in the assay on MOLT-4; 19.4 µM (inactive) with SK-MEL-5; 10.9 µM (inactive) in the assay on SK-MEL-2; 0.141 µM (active) with HL-60; 22.1 µM (inactive) in the assay with HOP-62. Further, the GI50 was 16.2 µM (inactive) with EKVX; 24.5 µM (inactive) with HOP-92; 9.64 µM (inactive) in the assay with PC-3; 15.7 µM (inactive) in the assay on HCT-116; 21 µM (inactive) with SR; 19.9 µM (inactive) in the assay on ACHN. Besides, the GI50 with HCC 2998 is 15 µM (inactive); with SW-620, 30.9 µM (inactive); with CAKI-1, 28.6 µM (inactive); with K562 it was 9.53 µM (inactive); in the assay with LOX IMVI, 12.9 µM (inactive).

On to `CCNC(=O)Nc1cccc(NC(=O)NCC)n1`, for which the GI50 is > 100 µM (inactive) with SF-539; > 100 µM (inactive) in the assay on MOLT-4; > 100 µM (inactive) in the assay with SK-OV-3; > 100 µM (inactive) with SK-MEL-5; 34.1 µM (inactive) with HL-60; 81.8 µM (inactive) in the assay on HOP-62. In addition, the GI50 in the assay on EKVX is 35.8 µM (inactive); in the assay with HOP-92, 50.4 µM (inactive); with PC-3, 59.3 µM (inactive); in the assay on CCRF-CEM, > 100 µM (inactive); in the assay on HCT-116 it was > 100 µM (inactive); in the assay with SN12C, > 100 µM (inactive). Also, the GI50 is 51.4 µM (inactive) with SR; > 100 µM (inactive) with ACHN; 62.1 µM (inactive) in the assay on HCC 2998; > 100 µM (inactive) in the assay on SW-620; 75.2 µM (inactive) in the assay with CAKI-1; > 100 µM (inactive) in the assay with K562.
